One data set concerns GII.4 HuNoV. In words: GII.4 HuNoV infection of HIE monolayers, viral genome equivalents by RT-qPCR. It is filed as cell-based, human norovirus. The conditions noted are these: GII.4 HuNoV, 24 hpi; for activity at 10 µM: Norovirus, 24 h, read-out: (%) HuNoV GEs; for activity at 10 µM / (%) HuNoV GEs: compound 10 μM, n = 1, J2 HIE monolayers, normalized to DMSO control. (In general: Quantitative PCR measures a nucleic acid by following its amplification.)

Data set [1] relates to J2 HIE monolayers. In words: Cytotoxicity by LDH assay in J2 HIE monolayers. The conditions noted are these: 24 hpi; for (%) Cytotoxicity: compound 10 μM, n = 1, LDH assay, J2 HIE monolayers infected with GII.4 HuNoV, normalized to DMSO control.
In data set [2] the test system is J2 HIE monolayers. The conditions noted are these: human, 24 h, 10 μM.

The results in this text go back to paper PMC8565515, “Dasabuvir Inhibits Human Norovirus Infection in Human Intestinal Enteroids” (mSphere, 2021).

Like-named read-outs stand apart in the source and are kept apart here.

Regarding `CN(C)C[C@H](O)Cn1c2ccc(Br)cc2c2cc(Br)ccc21` (racemic) [Wiskostatin], the activity at 10 µM in the data set on GII.4 HuNoV was determined as 22.9%. Moreover, the “(%) Cytotoxicity” value in the data set on J2 HIE monolayers [1] worked out at 2.02%.
As for `C[C@@]1(O)[C@H](O)[C@@H](CO)O[C@H]1n1ccc(N)nc1=O` [2-CMC, 2′-C-methylcytidine], the “effect on HuNoV infection” value in the data set with GII.4 HuNoV (389 μM, J2 monolayers, positive control) is “completely blocked viral infection”. Besides, the cytotoxicity result in the data set on J2 HIE monolayers [1] (389 μM, J2 monolayers) was “without any cytotoxicity”.
`COc1cc2ncnc(Nc3cccc(Cl)c3)c2cc1OC` [AG-1478]: the “(%) Cytotoxicity” value with J2 HIE monolayers [1] is on record as 84.88%.
For `Nc1ncnc2c1ncn2[C@@H]1O[C@H](COP(=O)(O)O)[C@@H](O)[C@H]1O.O` [Adenosine 5'-monophosphate monohydrate], the activity at 10 µM in the data set with GII.4 HuNoV stood at 34.4%. In addition, in the data set with J2 HIE monolayers [1], the “(%) Cytotoxicity” value was 0.18%.
Consider `C=C1CC[C@@H]2[C@](C)(CO)[C@H](O)CC[C@@]2(C)[C@@H]1C/C=C1/C(=O)OC[C@H]1O` [Andrographolide], for which, in the data set on GII.4 HuNoV, the activity at 10 µM was determined as 70.9%. Also, the “(%) Cytotoxicity” value with J2 HIE monolayers [1] was -1.18%.
Turning to `CCOC(=O)c1c(CSc2ccccc2)n(C)c2cc(Br)c(O)c(CN(C)C)c12.Cl` [Arbidol hydrochloride], the “(%) HuNoV GEs” value in the data set on GII.4 HuNoV is listed as 16.88%. Besides, the “(%) Cytotoxicity” value in the data set on J2 HIE monolayers [1] turned out to be 15.58%.
As for `COC(=O)c1cc(OC)c2c(c1-c1c(CO)cc(OC)c3c1OCO3)OCO2` [Bicyclol], the activity at 10 µM with GII.4 HuNoV stood at 162%. Further, the “(%) Cytotoxicity” value in the data set with J2 HIE monolayers [1] amounted to 0.26%.
As to `O=c1[nH]c(=O)n([C@H]2C[C@H](O)[C@@H](CO)O2)cc1/C=C/Br` [Brivudine], in the data set on GII.4 HuNoV, the activity at 10 µM turned out to be 34.8%. Further, in the data set on J2 HIE monolayers [1], the “(%) Cytotoxicity” value is listed as 4.68%.
The like results for `C[C@H]1CO[C@@H]2Cn3cc(C(=O)NCc4ccc(F)cc4F)c(=O)c(O)c3C(=O)N12` [Cabotegravir] were, in that order, 54.1% and 5.83%.
For `CC(C)c1nc(CN(C)C(=O)N[C@@H](CCN2CCOCC2)C(=O)N[C@H](CC[C@H](Cc2ccccc2)NC(=O)OCc2cncs2)Cc2ccccc2)cs1` [Cobicistat], in the data set with GII.4 HuNoV, the activity at 10 µM amounted to 19.8%. Besides, in the data set on J2 HIE monolayers [1], the “(%) Cytotoxicity” value is reported as -2.34%.
The like results for `Cc1cc(C)c(Nc2ccnc(Nc3ccc(C#N)cc3)n2)c(C)c1` [Dapivirine] were, in that order, 24.8% and 0.74%.
For `COC(=O)N[C@H](C(=O)NNC[C@H](O)[C@H](Cc1ccccc1)NC(=O)[C@@H](NC(=O)OC)C(C)(C)C)C(C)(C)C` [Des(benzylpyridyl) Atazanavi], the “(%) HuNoV GEs” value in the data set with GII.4 HuNoV is 101.09%. Also, the “(%) Cytotoxicity” value in the data set on J2 HIE monolayers [1] is listed as 2.40%.
The like results for `CC1(C)[C@@H](O[C@H]2O[C@H](C(=O)O)[C@@H](O)[C@H](O)[C@H]2O[C@@H]2O[C@H](C(=O)O)[C@@H](O)[C@H](O)[C@H]2O)CC[C@]2(C)[C@H]3C(=O)C=C4[C@@H]5C[C@@](C)(C(=O)O)CC[C@]5(C)CC[C@@]4(C)[C@]3(C)CC[C@@H]12.N.N` [Diammonium Glycyrrhizinate] were, in that order, 22.61% and 0.23%.
As to `O=c1c2ccccc2[se]n1-c1ccccc1` [Ebselen], the activity at 10 µM in the data set on GII.4 HuNoV stood at 96.7%. Besides, the “(%) Cytotoxicity” value in the data set on J2 HIE monolayers [1] is on record as 2.77%.
Turning to `COc1cc2c(cc1Cc1cccc(Cl)c1F)c(=O)c(C(=O)O)cn2[C@H](CO)C(C)C` [Elvitegravir], the activity at 10 µM with GII.4 HuNoV was determined as 164%. In addition, in the data set with J2 HIE monolayers [1], the “(%) Cytotoxicity” value is recorded as 0.85%.
The corresponding values for `CCOC(=O)CCC(=O)O[C@H]1[C@H](O[C@@H]2[C@@H](C)[C@H](O[C@H]3C[C@@](C)(OC)[C@@H](O)[C@H](C)O3)[C@@H](C)C(=O)O[C@H](CC)[C@@](C)(O)[C@H](O)[C@@H](C)C(=O)[C@H](C)C[C@@]2(C)O)O[C@H](C)C[C@@H]1N(C)C` [Erythromycin ethylsuccinate] are 107% and 0.23%.
With `CC[n+]1c(-c2ccccc2)c2cc(N)ccc2c2ccc(N)cc21` [Ethidium bromide], the activity at 10 µM in the data set on GII.4 HuNoV came out at 21.1%. Besides, the “(%) Cytotoxicity” value with J2 HIE monolayers [1] is -1.16%.
The like results for `Cc1cc(C#N)cc(C)c1Oc1nc(Nc2ccc(C#N)cc2)nc(N)c1Br` [Etravirine] were, in that order, 28.8% and 24.52%.
The like results for `NC(=O)c1nc(F)c[nH]c1=O` [Favipiravir] were, in that order, 81% and -1.51%.
On to `O=S(=O)(CCC(F)=C(F)F)c1ncc(Cl)s1` [Fluensulfone], for which the “(%) HuNoV GEs” value in the data set with GII.4 HuNoV was 63.19%. For the same compound, the “(%) Cytotoxicity” value in the data set with J2 HIE monolayers [1] is listed as -2.22%.
The corresponding values for `COc1ccc([C@H]2OC[C@H]3[C@@H]2CO[C@H]3c2ccc(O[C@@H]3O[C@H](CO)[C@@H](O)[C@H](O)[C@H]3O)c(OC)c2)cc1OC` [Forsythin] are 52.42% and 1.24%.
On to `CC1(C)[C@@H](O[C@H]2O[C@H](C(=O)O)[C@@H](O)[C@H](O)[C@H]2O[C@@H]2O[C@H](C(=O)O)[C@@H](O)[C@H](O)[C@H]2O)CC[C@]2(C)[C@H]3C(=O)C=C4[C@@H]5C[C@@](C)(C(=O)O)CC[C@]5(C)CC[C@@]4(C)[C@]3(C)CC[C@@H]12` [Glycyrrhizin], for which, in the data set on GII.4 HuNoV, the activity at 10 µM was determined as 103%. The “(%) Cytotoxicity” value with J2 HIE monolayers [1] worked out at 4.28%.
The corresponding values for `Nc1nc2c(ncn2[C@@H]2O[C@H](CO)[C@@H](O)[C@H]2O)c(=O)[nH]1` [Guanosine] are 32.3% and 0.15%.
As for `COc1ccnc(C[S+]([O-])c2nc3ccc(-n4cccc4)cc3[n-]2)c1C.[Na+]` (stereo not drawn) [Ilaprazole sodium], the “(%) HuNoV GEs” value in the data set on GII.4 HuNoV was determined as 39.34%. For the same compound, in the data set on J2 HIE monolayers [1], the “(%) Cytotoxicity” value is reported as 1.57%.
Consider `CC(C)=O.COC(=O)N[C@H](C(=O)N1CC2(CC2)C[C@H]1c1ncc(-c2ccc3c(c2)C(F)(F)c2cc(-c4ccc5nc([C@@H]6[C@H]7CC[C@H](C7)N6C(=O)[C@@H](NC(=O)OC)C(C)C)[nH]c5c4)ccc2-3)[nH]1)C(C)C` [Ledipasvir acetone], for which, in the data set on GII.4 HuNoV, the “(%) HuNoV GEs” value amounted to 133.29%. Further, the “(%) Cytotoxicity” value in the data set with J2 HIE monolayers [1] is on record as 6.17%.
Take `CC(C)(C)C#Cc1cc(N(C(=O)[C@H]2CC[C@H](C)CC2)[C@H]2CC[C@H](O)CC2)c(C(=O)O)s1` [Lomibuvir]: the activity at 10 µM with GII.4 HuNoV was determined as 87.6%. The “(%) Cytotoxicity” value with J2 HIE monolayers [1] is -1.75%.
Consider `CC(C)c1cc(Oc2c(Cl)cc(-n3nc(C#N)c(=O)[nH]c3=O)cc2Cl)n[nH]c1=O` [MGL3196], for which the activity at 10 µM with GII.4 HuNoV was found to be 70.8%. In addition, in the data set with J2 HIE monolayers [1], the “(%) Cytotoxicity” value was -0.56%.
With `CCOC(=O)c1c(C)n(C)c2ccc(O)cc12` [Mecarbinate], in the data set on GII.4 HuNoV, the “(%) HuNoV GEs” value came out at 102.13%. In addition, in the data set with J2 HIE monolayers [1], the “(%) Cytotoxicity” value is given as 0.93%.
As to `Cl.N=C(N=C(N)N)N1CCOCC1` [Moroxydine hydrochloride], in the data set on GII.4 HuNoV, the “(%) HuNoV GEs” value was determined as 119.22%. Moreover, in the data set on J2 HIE monolayers [1], the “(%) Cytotoxicity” value is recorded as -1.11%.
Turning to `CCCCCCCCCC(=O)O[C@H]1CC[C@H]2[C@@H]3CCC4=CC(=O)CC[C@@H]4[C@H]3CC[C@]12C` [Nandrolone decanoate], the activity at 10 µM in the data set on GII.4 HuNoV amounted to 58.9%. Further, the “(%) Cytotoxicity” value with J2 HIE monolayers [1] is recorded as 0.98%.
On to `O=C1C[C@@H](c2ccc(O)cc2)Oc2cc(O)cc(O)c21` [Naringenin], for which the activity at 10 µM in the data set with GII.4 HuNoV was 165%. Moreover, the “(%) Cytotoxicity” value in the data set on J2 HIE monolayers [1] was determined as 1.14%.
On to `C[C@@H]1O[C@@H](O[C@H]2[C@H](Oc3cc(O)c4c(c3)O[C@H](c3ccc(O)cc3)CC4=O)O[C@H](CO)[C@@H](O)[C@@H]2O)[C@H](O)[C@H](O)[C@H]1O` [Naringin], for which the activity at 10 µM in the data set on GII.4 HuNoV is 101%. Further, the “(%) Cytotoxicity” value in the data set on J2 HIE monolayers [1] was found to be 5.67%.
The corresponding values for `Cc1ccnc2c1NC(=O)c1cccnc1N2C1CC1` [Nevirapine] are 56.6% and 0.72%.
The corresponding values for `CC1(C)CC[C@]2(C(=O)O)CC[C@]3(C)C(=CC[C@@H]4[C@@]5(C)CC[C@H](O)C(C)(C)[C@@H]5CC[C@]43C)[C@@H]2C1` [Oleanolic Acid] are 82% and 4.14%.
The like results for `CC1(C)CC[C@]2(C(=O)O)CC[C@]3(C)C(=CC[C@@H]4[C@@]5(C)CCC(=O)C(C)(C)[C@@H]5CC[C@]43C)[C@@H]2C1` [Oleanonic Acid] were, in that order, 11.9% and -3.05%.
For `O=C(Nc1ccc(O)cc1)c1ccccc1O` [Osalmid], in the data set on GII.4 HuNoV, the activity at 10 µM came out at 52.1%. Moreover, the “(%) Cytotoxicity” value in the data set on J2 HIE monolayers [1] was 3.16%.
Consider `O=C1CCC[C@@H]2[C@H]3CCC[N+]4([O-])CCC[C@@H](CN12)[C@@H]34` (stereo partly drawn) [Oxymatrine], for which the activity at 10 µM in the data set on GII.4 HuNoV came to 56.1%. Moreover, the “(%) Cytotoxicity” value with J2 HIE monolayers [1] amounted to 2.33%.
The corresponding values for `Cc1cnc(C(=O)N[C@H]2CCCCC/C=C\[C@@H]3C[C@@]3(C(=O)NS(=O)(=O)C3CC3)NC(=O)[C@@H]3C[C@@H](Oc4nc5ccccc5c5ccccc45)CN3C2=O)cn1` [Paritaprevir] are 45% and -0.33%.
As for `C[C@H]1CC[C@@]2(O)C(C)(C)[C@@H]3CC[C@@]2(C)[C@H]1C3` [Patchouli alcohol], in the data set with GII.4 HuNoV, the “(%) HuNoV GEs” value stood at 83.87%. In the data set with J2 HIE monolayers [1], the “(%) Cytotoxicity” value is 1.24%.
Consider `Cc1nc(N(C)C(=O)Cc2ccc(-c3ccccn3)cc2)sc1S(N)(=O)=O` [Pritelivir], for which the activity at 10 µM with GII.4 HuNoV stood at 64.5%. Besides, the “(%) Cytotoxicity” value with J2 HIE monolayers [1] was -1.63%.
The like results for `Cc1nnc(C(=O)NC(C)(C)c2nc(C(=O)NCc3ccc(F)cc3)c(O)c(=O)n2C)o1` [Raltegravir] were, in that order, 49.3% and 1.45%.
In the case of `Cc1cc(/C=C/C#N)cc(C)c1Nc1ccnc(Nc2ccc(C#N)cc2)n1` [Rilpivirine], the activity at 10 µM with GII.4 HuNoV amounted to 117%. Besides, the “(%) Cytotoxicity” value in the data set on J2 HIE monolayers [1] stood at 0.20%.
In the case of `C[C@@H](c1ncncc1F)[C@](O)(Cn1cncn1)c1ccc(F)cc1F` [Voriconazole], the “(%) Cytotoxicity” value in the data set with J2 HIE monolayers [2] was -1.63%. In the data set with GII.4 HuNoV, the activity at 10 µM is 14.1%.
`Nc1ccn([C@H]2CC[C@@H](CO)O2)c(=O)n1` [Zalcitabine]: in the data set on J2 HIE monolayers [2], the “(%) Cytotoxicity” value stood at 2.88%. For the same compound, the activity at 10 µM in the data set with GII.4 HuNoV turned out to be 71.5%.
